Experimental data from the NIST ThermoML archive (doi:10.1016/j.jct.2007.02.009).
Numbers after ± are expanded uncertainties.

What was measured:
[1] = Crystal; Adiabatic calorimetry
[2] = Molar enthalpy of transition or fusion; conditions: Crystal; Adiabatic calorimetry

Triple point temperature [1]: 254.23 ± 0.18 K | Molar enthalpy of transition or fusion [2]: 2.44 ± 0.0598 kcal/mol
SMILES: CC(=O)N(C)C [N,N-dimethylethanamide]
